From article PMC7353089, “The Hepatotoxicity of Alantolactone and Germacrone: Their Influence on Cholesterol and Lipid Metabolism in Differentiated HepaRG Cells” (Nutrients, 2020)
Entries after “also recorded” stand apart in the source; their conditions may differ. Read-outs that look alike come from different tables or passages of the source.

What was measured:
[1] = test system: HMGCR mRNA; experiment: RT-qPCR mRNA expression in dHepaRG cells; assay type: cell-based, human; conditions: single exposure, the highest concentration
Experimental: The mRNA and protein expression changes were measured after a single administration of ALA and GER. Three concentrations were selected for each compound (non-toxic, non-toxic/slightly toxic and toxic). The cholesterol level of the dHepaRG cells was measured after a multiple exposure of the highest non-toxic concentrations of tested compounds. ATL (30 µM) and GER (100 µM) were administered four times every 24 h. The expression changes of genes and proteins related to cholesterol metabolism were measured in both single and multiple exposure experiments.
All treatments were performed in triplicates and every experiment was performed three times. The cells were washed twice with ice cold phosphate-buffered saline (PBS), scrapped and stored at −80 °C until use. Total RNA from cells was isolated using TriReagent according to the manufacturer’s instructions (Biotech, Prague, Czech Republic). The purified RNA was dissolved in 40 µL of diethyl pyrocarbonate (DEPC)-treated water (0.01% DEPC in HPLC water, autoclaved) and stored at −80 °C. The measurement of absorbance at 260 and 280 nm using the NanoDrop ND-1000 UV–VIS Spectrophotometer (Thermo Fisher Scientific, Pardubice, Czech Republic) was used to determine RNA yields and purity. Subsequently, the RNA (4 µg) was treated with 2 U of DNase I (New England Biolabs, Ipswich, MA, USA) in a final volume of 30 µL for 25 min at 37 °C, 1.5 µL of 0.1 M ethylenediaminetetraacetic acid was added and the DNAse was inactivated by heat (5 min at 75 °C). The solution was diluted to a concentration of 0.1 µg/µL. The DNAse treated RNA was stored at −80 °C until further analyses. […] Fluorescence data were recorded at the end of each amplification step. Relative expression levels of the target genes were calculated as fold changes in triplicates for each group using the 2^−ΔΔCt method by normalization to the geometric mean of the Ct values of Sdha and Ywhaz, which were used as reference genes.

[2] = test system: PPARα mRNA; experiment: RT-qPCR mRNA expression in dHepaRG cells; assay type: cell-based, human
Experimental: (§1) All treatments were performed in triplicates and every experiment was performed three times. The cells were washed twice with ice cold phosphate-buffered saline (PBS), scrapped and stored at −80 °C until use. Total RNA from cells was isolated using TriReagent according to the manufacturer’s instructions (Biotech, Prague, Czech Republic). The purified RNA was dissolved in 40 µL of diethyl pyrocarbonate (DEPC)-treated water (0.01% DEPC in HPLC water, autoclaved) and stored at −80 °C. The measurement of absorbance at 260 and 280 nm using the NanoDrop ND-1000 UV–VIS Spectrophotometer (Thermo Fisher Scientific, Pardubice, Czech Republic) was used to determine RNA yields and purity. Subsequently, the RNA (4 µg) was treated with 2 U of DNase I (New England Biolabs, Ipswich, MA, USA) in a final volume of 30 µL for 25 min at 37 °C, 1.5 µL of 0.1 M ethylenediaminetetraacetic acid was added and the DNAse was inactivated by heat (5 min at 75 °C). […] Fluorescence data were recorded at the end of each amplification step. Relative expression levels of the target genes were calculated as fold changes in triplicates for each group using the 2^−ΔΔCt method [28] by normalization to the geometric mean of the Ct values of Sdha and Ywhaz, which were used as reference genes.

[3] = test system: HepG2; conditions: HepG2, 24 h, read-out: Previously Reported IC50 Values (24 h), cited from earlier work
[4] = test system: HMGCS mRNA; experiment: RT-qPCR mRNA expression in dHepaRG cells; assay type: cell-based, human
Experimental: (§2) Three concentrations were selected for each compound (non-toxic, non-toxic/slightly toxic and toxic). The cholesterol level of the dHepaRG cells was measured after a multiple exposure of the highest non-toxic concentrations of tested compounds. […] The expression changes of genes and proteins related to cholesterol metabolism were measured in both single and multiple exposure experiments.
(§3) All treatments were performed in triplicates and every experiment was performed three times. The cells were washed twice with ice cold phosphate-buffered saline (PBS), scrapped and stored at −80 °C until use. Total RNA from cells was isolated using TriReagent according to the manufacturer’s instructions (Biotech, Prague, Czech Republic). The purified RNA was dissolved in 40 µL of diethyl pyrocarbonate (DEPC)-treated water (0.01% DEPC in HPLC water, autoclaved) and stored at −80 °C. The measurement of absorbance at 260 and 280 nm using the NanoDrop ND-1000 UV–VIS Spectrophotometer (Thermo Fisher Scientific, Pardubice, Czech Republic) was used to determine RNA yields and purity. Subsequently, the RNA (4 µg) was treated with 2 U of DNase I (New England Biolabs, Ipswich, MA, USA) in a final volume of 30 µL for 25 min at 37 °C, 1.5 µL of 0.1 M ethylenediaminetetraacetic acid was added and the DNAse was inactivated by heat (5 min at 75 °C). The solution was diluted to a concentration of 0.1 µg/µL. The DNAse treated RNA was stored at −80 °C until further analyses. The first strand cDNA was synthesized from 800 ng of total RNA and 1 µL of 50 µM random hexamers (Generi Biotech, Hradec Kralove, Czech Republic) using ProtoScript II reverse transcriptase (New England Biolabs, Ipswich, MA, USA). After the initial heat denaturation of total RNA (65 °C for 5 min), 4 µL of 5× ProtoScript II RT Reaction Buffer, 2 µL of 10× dithiothreitol (DTT), 2 µL of deoxynucleotide (dNTP) Mix 5 mM, 3.5 µL of H2O, and 0.5 µL of ProtoScript II 200 U/µL were added and mixed by pipetting. The reactions (20 µL) were incubated for 10 min at 25 °C, for 50 min at 42 °C, and for 5 min at 80 °C. The obtained cDNAs were diluted 1:6 by DEPC water. The qPCR analyses were carried out using QuantStudio 6 Flex (Applied Biosystems, Foster City, CA, USA) with SYBR green I (Xceed qPCR SG Mix, Institute of Applied Biotechnologies, Prague, Czech Republic) detection according to the manufacturer’s protocol. […] Fluorescence data were recorded at the end of each amplification step. Relative expression levels of the target genes were calculated as fold changes in triplicates for each group using the 2^−ΔΔCt method [28] by normalization to the geometric mean of the Ct values of Sdha and Ywhaz, which were used as reference genes.

[5] = test system: SREBP-1c mRNA; experiment: RT-qPCR mRNA expression in dHepaRG cells; assay type: cell-based, human
Experimental: as §1

[6] = test system: MDA-MB-231; conditions: MDA-MB-231, 24 h; read-out: Previously Reported IC50 Values (24 h); cited from earlier work
[7] = test system: CYP19A1 mRNA; experiment: RT-qPCR mRNA expression in dHepaRG cells; assay type: cell-based, human
Experimental: as §2, §3

[8] = test system: A1AT mRNA; experiment: RT-qPCR mRNA expression in dHepaRG cells; assay type: cell-based, human; conditions: after 24 h
Experimental: (§4) Three concentrations were selected for each compound (non-toxic, non-toxic/slightly toxic and toxic). […] The expression changes of genes and proteins related to cholesterol metabolism were measured in both single and multiple exposure experiments.
(§5) All treatments were performed in triplicates and every experiment was performed three times. The cells were washed twice with ice cold phosphate-buffered saline (PBS), scrapped and stored at −80 °C until use. Total RNA from cells was isolated using TriReagent according to the manufacturer’s instructions (Biotech, Prague, Czech Republic). The purified RNA was dissolved in 40 µL of diethyl pyrocarbonate (DEPC)-treated water (0.01% DEPC in HPLC water, autoclaved) and stored at −80 °C. The measurement of absorbance at 260 and 280 nm using the NanoDrop ND-1000 UV–VIS Spectrophotometer (Thermo Fisher Scientific, Pardubice, Czech Republic) was used to determine RNA yields and purity. […] Fluorescence data were recorded at the end of each amplification step. Relative expression levels of the target genes were calculated as fold changes in triplicates for each group using the 2^−ΔΔCt method [28] by normalization to the geometric mean of the Ct values of Sdha and Ywhaz, which were used as reference genes.

[9] = test system: ALB mRNA; experiment: RT-qPCR mRNA expression in dHepaRG cells; assay type: cell-based, human; conditions: after 6 h of exposure
Experimental: as §4, §5

[10] = single exposure, toxic concentration after 24 h
[11] = single exposure, 6, 12 and 24 h

**Q.** Which results are given for `C=C1C(=O)O[C@@H]2C[C@@]3(C)CCC[C@H](C)C3=C[C@H]12` [ATL, alantolactone]?
**A.** HMGCR mRNA level ([1]; 6-h exposure): induction; HMGCR mRNA level ([1]; 12- and 24-h exposure): decreased level; PPARα mRNA expression [2, 10]: inhibited; IC50 ([3]; ref 9): 33 µM; IC50 ([3]; ref 35): 7 µM; IC50 ([3]; ref 36): 30 µM; HMGCS mRNA level ([4]; multiple exposure: four applications every 24 h, analyzed 12 h after the last, 30 μM ATL, 100 μM GER, 20 μM LOV): induced; HMGCS mRNA level ([4]; single exposure, the highest concentration, 6-h exposure): induction; HMGCS mRNA level ([4]; single exposure, the highest concentration, 12- and 24-h exposure): decreased level; SREBP-1c mRNA [5, 11]: dysregulated; IC50 [6]: > 15 µM; CYP19A1 mRNA level ([7]; 20 and 40 µM, all the studied intervals (6, 12, 24 h)): induced

**Q.** With `CC(C)=C1C/C=C(\C)CC/C=C(\C)CC1=O` [GER, germacrone] as the compound, how does the “A1AT mRNA expression” value [8] read?
**A.** Its value is “inhibited”.

**Q.** What about the “PPARα mRNA expression” value [2, 11] of the same compound?
**A.** Its value is “no effect”.

**Q.** What about the IC50 ([3]; ref 7) of the same compound?
**A.** The IC50 was 170 µM.

**Q.** What about the IC50 ([3]; ref 12) of the same compound?
**A.** Its IC50 is 160 µM.

**Q.** What about the IC50 ([3]; ref 13) of the same compound?
**A.** The IC50 was over 240 µM.

**Q.** And the “SREBP-1c mRNA” value [5, 10]?
**A.** Its value is “inhibited”.

**Q.** What about the IC50 [6] of the same compound?
**A.** Its IC50 is 244 µM.

**Q.** And the “ALB mRNA expression” value [9]?
**A.** Its value is “induced”.

**Q.** And the “CYP19A1 mRNA level” value ([7]; 100 µM, 24-h exposure)?
**A.** The value was “induced the level by nearly two-fold; also recorded: significantly induced”.

**Q.** What about the “CYP19A1 mRNA level” value ([7]; both higher concentrations, 6- and 12-hour exposure) of the same compound?
**A.** The value was “decreased”.
